Reference: patent publication US9814731B2, “Method for the induction of phase 2 related genes in a mammal comprising administering exemestane” (THE JOHNS HOPKINS UNIVERSITY, priority 2013, dated 2017)

Assays:
WT MEF cells = test: ROS in wild-type MEF challenged with tert-butyl hydroperoxide; type: cell-based, mouse; details: 24 hours pretreatment
Protocol: (§1) ARPE-19 or MEF cells (10,000 per well) in 96-well plates (black-walled wells with clear bottom) were treated with serial dilutions of exemestane for 24 hours, and then incubated with 20 μM H2DCFDA for 30 minutes (Chem Res Toxicol 5: 227-231(1992)). After washing with Dulbecco's phosphate-buffered saline (DPBS) twice, the cells were challenged with 500 μM tert-butyl hydroperoxide for 30 minutes, and fluorescence intensity was measured in SpectraMax GeminiEM plate reader (Molecular Devices) with excitation at 485 nm and emission at 530 nm. Murine 308 keratinocytes (40,000 per well) were plated in 24-well plates and grown for 24 hours. Medium was then replaced with medium containing different concentrations of exemestane (0, 2, 4, 8 μM). After further incubation for 24 hours, cells were incubated with 20 μM H2DCFDA for 30 minutes, washed twice with DPBS twice and exposed to 5 or 10 J/cm^2 UVA (340-400 nm). Immediately after UVA irradiation, fluorescence intensity was measured by a microplate reader.

RAW264.7 cells = test: Cytotoxicity in RAW264.7 cells; type: cell-based, murine; details: RAW264.7, 20 μM
H9c2 cells = test: Hypoxia/reoxygenation injury in H9c2 cardiomyocytes (MTT); type: cell-based, rat; details: H9c2, 24 hours pretreatment, 10 μM
Protocol: (§2) ARPE-19 cells (10,000 cells/well) in 96-well plates were treated with serial dilutions of exemestane for 24 hours, and exposed to tert-butyl hydroperoxide or 4-hydroxynonenal in serum-free medium for 4 hours. The cells were then incubated in serum-free medium for additional 20 hours, washed with DPBS, and cell viability was determined using the colorimetric procedure based on the reduction of a water-soluble tetrazolium salt, 3-(4,5-dimethylthiazo-2-yl)-2,5-diphenyltetrazolium bromide (MTT). H9c2 cells (10,000 cells/well) in 96-well plates were treated with a range of concentrations of exemestane. After 24 hours, the cells were washed with DPBS, and exposed to 2 mM Na2S2O4 in serum-free medium for 1 hour. The cells were then washed with DPBS and incubated in complete medium containing 10% FBS for 24 hours, and then cell viability was measured by the MTT assay.

NQO1 [1] = test: NQO1 assay in Nrf2-knockout MEF; type: cell-based, mouse; details: 48 hours
Protocol: (§3) Cells (10,000 per well) were grown in 96-well plates for 24 hours, then exposed to serial dilutions of inducers for 48 hours, and lysed in 0.08% digitonin. Enzymatic activity of NQ01 in cell lysates was determined with menadione as a substrate (Anal Biochem 169: 328-336 (1988), Methods Enzymol 382(B): 243-258 (2004)). The concentrations required to double the specific activity of NQO1 (CD values) were used to quantify inducer potency.

NF-κB = test: LPS-induced NF-κB luciferase reporter in U937 3×κB-LUC cells; type: cell-based, human; details: LPS 10 ng/ml; for effect on LPS-activated NF-κB by itself: 6 hours, exemestane up to 30 μM; for effect on the inhibitory effect of sulforaphane on NF-κB activation: combined with sulforaphane
Protocol: Human monocytic U937-3×κB-LUC cells were transferred to medium with 2% heat-inactivated FBS in 24-well plates (1×10^6 cells/well) and incubated overnight. Then cells were incubated with exemestane, sulforaphane, combination of both compounds, or vehicle control for 30 minutes, and exposed to LPS (10 ng/ml). After an additional 6-hour incubation, cells were harvested and NF-κB-driven luciferase activity was assayed according to the manufacturer's instructions (Promega, Madison, Wis.). Luciferase activity was normalized to total protein concentration to compensate for possible cell toxicity of the compounds.

NQO1 [2] = test: NQO1 induction in mouse skin by topical application; type: in vivo, SKH-1 hairless mice; details: three applications at 24-hour intervals
Protocol: Eleven-month-old female SKH-1 hairless mice (n=5) purchased from Charles River Laboratories were treated three times at 24-hour intervals on the backs with 0, 1 and 2 μmol of exemestane dissolved in 80% aqueous acetone (40 μL) over about a 2.0 cm^2 area. Mice were euthanized 24 hours after the final dose. Each treated segment of the dorsal skin was harvested, pulverized in liquid N2, and homogenized in 10 volumes of 0.25 M sucrose in 10 mM Tris buffer (pH 7.4). After three freeze-thaw cycles, the homogenates were centrifuged at 14,000 rpm and 4° C. for 30 minutes, and the supernatant fractions were analyzed for protein concentration and NQO1 activity. All animal experiments were in compliance with National Institutes of Health Guidelines and were approved by The Johns Hopkins University Animal Care and Use Committee.

Nrf2-/- MEF cells = test: ROS in Nrf2-/- MEF challenged with tert-butyl hydroperoxide; type: cell-based, mouse; details: 24 hours pretreatment
Protocol: as §1

iNOS [3] = test: LPS-activated iNOS (NO production) in Nrf2-/- mouse peritoneal macrophages; type: cell-based; details: LPS 100 ng/ml, 24 hours
Protocol: (§4) Nrf2−/− mice on C57BL/6 background were initially established by Itoh et al. WT C57BL/6 mice were purchased from The Jackson Laboratory. Macrophages were harvested by lavage from the peritoneal cavity with DPBS 4 days after an i.p. injection of thioglycolate broth (Brewer, 4%). Isolated cells were plated into 96-well plates at a density of 10^5 cells per well in RPMI 1640 medium containing 2 mM Lglutamine, 10% heat-inactivated FBS, 100 U/ml […]. After 3 hours of incubation at 37° C. in 5% CO2. nonmacrophage cells were washed away with DPBS. The remaining macrophages were exposed immediately to serial dilutions of exemestane, sulforaphane or a combination of both compounds in the presence of 100 ng/ml LPS, and incubated for 24 hours before measurement of iNOS.
(§5) RAW264.7 cells (20,000 per well) in 96-well plates, were grown for 24 hours, and exposed to serial dilutions of exemestane in the presence of 10 ng/ml LPS. After 48-hour incubation, nitrite concentration in culture supernatant fractions of RAW264.7 cells or mouse peritoneal macrophages, measured as an indicator of iNOS induction, was determined by the Griess reaction (Cancer Res 58: 717-723 (1998), Proc Natl Acad Sci USA 105: 15926-15931 (2008)). The nitrite values of cells treated with LPS but without test compounds were used as controls.

iNOS [4] = test: LPS-activated iNOS (NO production) in wild-type mouse peritoneal macrophages; type: cell-based; details: Peritoneal macrophage, single agent, 100 ng/ml LPS, 24 hours, read-out: concentration required for 50% inhibition of LPS-stimulated nitric oxide generation
Protocol: as §4, §5

ARPE-19 cells [5] = test: Cytotoxicity of oxidative stresses in ARPE-19 cells (MTT); type: cell-based, human; details: ARPE-19, 24 hours pretreatment 0-20 μM
Protocol: as §2

ARPE-19 cells [6] = test: Intracellular ROS in ARPE-19 cells challenged with tert-butyl hydroperoxide; type: cell-based, human; details: ARPE-19, 24 hours pretreatment, 500 μM tert-butyl hydroperoxide
Protocol: as §1

breast cancer = details: 4560 women at moderately increased risk for developing breast cancer; cited from earlier work
NQO1 [7] = test: NQO1 assay in wild-type MEF; type: cell-based, mouse; details: 48 hours
Protocol: as §3

308 keratinocytes = test: UVA-stimulated ROS production in murine 308 keratinocytes; type: cell-based; details: 24 hours pretreatment, 5 or 10 J/cm^2 UVA
Protocol: as §1

NQO1 [8] = test: Real-time PCR of NQO1 mRNA in H9c2 cells; type: cell-based, rat; details: 10 μM, 6 hours
Protocol: (§6) Total mRNA from cells was extracted with TRIzol reagent (Invitrogen, Carlsbad, Calif.). […] was synthesized by the iScript cDNA Synthesis Kit (Bio-Rad Laboratories, Inc., Hercules, Calif.). Quantitative real-time PCR analysis was performed using the 7000 Sequence Detection System (Applied Biosystems, Foster City, Calif.). All primers were optimized and a final primer concentration of 300 nM was used for all reactions. Primer sequences for gene amplification were as follows: NAD(P)H: quinone oxidoreductase 1 (NQO1): fwd 5′-[…]-3′ (SEQ ID NO: 1), rev 5′-[…]-3′ (SEQ ID NO: 2); heme oxygenase-1 (HO-1): fwd 5′-[…]-3′ (SEQ ID NO: 3), rev 5′-[…]-3′ (SEQ ID NO: 4). (3-actin (endogenous control): fwd 5′-[…]-3′ (SEQ ID NO: 5), rev 5′-catcllllcacggttggcctta-3′ (SEQ ID NO: 6). The reactions were assembled using 5 ng of cDNA, 1× Power SYBR Green PCR Master Mix (Life Technologies), forward and reverse primers, and nuclease-free water. Relative mRNA expression was normalized to β-actin. Gene expression was calculated using the comparative 2^−ΔΔCT method.

NQO1 [9] = test: NQO1 assay in murine hepatoma Hepa1c1c7 cells; type: cell-based; details: for CD value (concentration required to double the specific activity of NQO1): 48 hours exposure; for inducer activity for NQO1: concentrations up to 20 μM
Protocol: as §3

NQO1 [10] = test: NQO1 assay in rat H9c2 myocardiocytes; type: cell-based; details: H9c2 cells, 48 hours exposure
Protocol: as §3

heme oxygenase-1 (HO-1) = test: Real-time PCR of HO-1 mRNA in H9c2 cells; type: cell-based, rat; details: 10 μM, 6 hours
Protocol: as §6

iNOS [11] = test: LPS-activated iNOS (NO production, Griess reaction) in RAW264.7 cells; type: cell-based, murine; details: for IC50: Mus musculus, RAW264.7, 10 ng/ml LPS, 48 h, read-out: IC50 of NO generation; for inhibition of LPS-stimulated NO production: RAW264.7, up to 20 μM
Protocol: RAW264.7 cells (20,000 per well) in 96-well plates, were grown for 24 hours, and exposed to serial dilutions of exemestane in the presence of 10 ng/ml LPS. […] The nitrite values of cells treated with LPS but without test compounds were used as controls.

NQO1 [12] = test: NQO1 assay in human retinal pigment epithelial ARPE-19 cells; type: cell-based; details: 48 hours exposure
Protocol: as §3

NQO1 [13] = test: NQO1 assay in murine 308 keratinocytes; type: cell-based; details: 308 cells, 48 hours exposure
Protocol: as §3

[14] = system: Hepa1c1c7, ARPE-19, 308 and H9c2 cells; test: Cytotoxicity in all cell lines of the NQO1 assay (Hepa1c1c7, ARPE-19, 308, H9c2); type: cell-based; details: up to 20 μM, the highest concentration tested
Hepa1c1c7 cells = test: Cytotoxicity in Hepa1c1c7 cells; type: cell-based, murine; details: 20 μM

Compound	toxicity (RAW264.7 cells)	NQO1 activity (NQO1 [1])	effect on LPS-activated NF-κB by itself (NF-κB)	effect on the inhibitory effect of sulforaphane on NF-κB activation (NF-κB)	IC50 (iNOS [4]) [µM]	NQO1 activity (NQO1 [7])	CD value (concentration required to double the specific activity of NQO1) (NQO1 [9]) [µM]	CD value (concentration required to double the specific activity of NQO1) (NQO1 [10]) [µM]	IC50 (iNOS [11]) [nM]	CD value (concentration required to double the specific activity of NQO1) (NQO1 [12]) [µM]	CD value (concentration required to double the specific activity of NQO1) (NQO1 [13]) [µM]	inducer activity for NQO1 (NQO1 [9])	inhibition of LPS-stimulated NO production (iNOS [11])	also measured
C=C1C[C@@H]2[C@H](CC[C@]3(C)C(=O)CC[C@@H]23)[C@@]2(C)C=CC(=O)C=C12 [Exemestane, 6-methyleneandrosta-1,4-diene-3,17-dione]	no toxicity	not affected	no effect	dramatically enhanced	24.2	dose-dependently induced NQO1 activity	0.65	2.9	2500	2.2	0.65	–	–	tert-butyl hydroperoxide-stimulated ROS levels (WT MEF cells): clearly suppressed; cell viability after hypoxia/reoxygenation (H9c2 cells): almost totally restored cell viability; elevation of NQO1 activity in homogenates of skin (NQO1 [2]; 0.5 μmol/cm^2 per application): 1.3 fold; elevation of NQO1 activity in homogenates of skin (NQO1 [2]; 1.0 μmol/cm^2 per application): 1.7 fold; protection against tert-butyl hydroperoxide-stimulated ROS (Nrf2-/- MEF cells): no protection; inhibition of LPS-stimulated NO production in Nrf2-/- compared with WT macrophages (iNOS [3]): much less effective inhibitor; protection against cytotoxicity of tert-butyl hydroperoxide (ARPE-19 cells [5]; oxidant 0.2, 0.4, 0.8 mM for 4 hours): protected against cytotoxicity; protection against cytotoxicity of 4-hydroxynonenal (ARPE-19 cells [5]; oxidant 10, 20, 40 μM for 4 hours): protected against cytotoxicity; ROS production stimulated by tert-butyl hydroperoxide (ARPE-19 cells [6]): suppressed ROS production; reduction of the risk of breast cancer relative to placebo (breast cancer): 65%; ROS in UVA-irradiated cells (308 keratinocytes): dose-dependently led to the reduction of ROS; increase in NQO1 mRNA expression over control cells (NQO1 [8]): 3 fold; increase in mRNA levels of HO-1 over control cells (heme oxygenase-1 (HO-1)): greater than 8 fold; cytotoxicity [14]: no cytotoxicity
N#Cc1ccc(C(c2ccc(C#N)cc2)n2cncn2)cc1 [letrozole]	no toxicity	–	no effect	did not enhance	–	–	–	–	–	–	–	no inducer activity	did not inhibit	–
C[S+]([O-])CCCCN=C=S (stereo not drawn) [sulforaphane, R,S-sulforaphane]	–	not affected	–	–	1.5	dose-dependently induced NQO1 activity	0.2	0.9	500	0.7	0.2	–	–	–
CC/C(=C(\c1ccccc1)c1ccc(OCCN(C)C)cc1)c1ccccc1 [tamoxifen]	–	–	–	–	–	–	–	–	–	–	–	did not induce NQO1 activity	did not inhibit	cytotoxicity (RAW264.7 cells): 50%; cytotoxicity (Hepa1c1c7 cells): about 90%
